The text below walks through data of patent US5401724A, “Therapeutic treatment of chronic myelogenous leukemia by administration of 2-chloro-2'-deoxy adenosine” (priority 1994, dated 1995).

The subject of series [1] is delayed-type hypersensitivity. The experiment in a line: Oral and IP effects on delayed-type hypersensitivity (DTH) to ovalbumin (Example 5, first study). It counts as in vivo, guinea pig. Particulars: for inhibition of swelling compared to saline control: 24 and 48 hours after ovalbumin challenge, p <0.01 by Student's t-test. As to the method:
(§1) Delayed-type hypersensitivity (DTH) is a cell-mediated immune response that typically takes longer than 12 hours to develop. In the guinea pig, a DTH reaction to an antigen can be established by first immunizing the animal with the antigen in an adjuvant such as Freund's complete adjuvant. Subsequent intradermal injection of the antigen causes no change for at least 10 hours, after which there is a gradual increase in erythema and swelling in response to antigen injection. This response peaks about at about 24 hours after challenge, then gradually subsides.
(§2) Histologically, the inflammatory response is characterized by intense inundation of the site with mononuclear cells, of which about half are lymphocytes and the other half monocytes. DTH is therefore an indicator of a monocyte-mediated immune reaction.
In one study, guinea pigs were sensitized to ovalbumin in adjuvant. […] The animals were then injected with ovalbumin intradermally to elicit the DTH response. The mean area of the swelling size was measured for each animal (nine or ten animals were treated for each protocol).

Series [2] deals with delayed-type hypersensitivity. The series is described as follows: Effects of different dosages of 2-CdA on DTH to ovalbumin (Example 5, second study). Particulars: 5 mg/kg; 24 and 48 hours post-challenge; p <0.01 by Student's t-test. Type of series: in vivo, guinea pig. As to the method:
as §1, §2
Three days after treatment, the animals were challenged with ovalbumin intradermally. The areas of the skin lesions were measured at 6, 24, and 48 hours after challenge.

For series [3], the system named is chronic myelogenous leukemia. Conditions: cited from earlier work; for bone marrow cells with the translocation: marrow of treated patients.
The conditions of series [4]: pH 1, 37 degrees C.; cited from earlier work.
The subject of series [5] is CEM, wild type.
Excerpt: (§3) ^1 Concentration that produced 50 percent reduction in all numbers
Series [6] relates to CEM, Increased 5'-nucleoside.
Excerpt: as §3
The subject of series [7] is DHL9, Increased ribonucleotide reduction.
Excerpt: as §3
The test system of series [8] is Peripheral blood lymphocytes.
Excerpt: as §3
In series [9] the test system is Monocytes.
Excerpt: as §3
The subject of a further series is SB (B cell line). The series is described as follows: cells. Conditions: Homo sapiens.
Another series deals with K562 (myeloid cell line). The series is described as follows: cells. Particulars: Homo sapiens.
A further series relates to CEM (T cell line). The experiment in a line: cells. Particulars: Homo sapiens.
The test system of a further series is Molt-4 (T cell line). The experiment in a line: cells. Particulars: Homo sapiens.
The test system of series [10] is THP-1 (monocyte-like cell line). The series is described as follows: cells. Conditions: Homo sapiens.
Excerpt: (§4) Of the other five cell lines, two were T cell lines, one called CEM and the other Molt-4, and the remaining three were monocyte-like cell lines, designated THP-1, U937 and HL-60, respectively.
Series [11] concerns U937 (monocyte-like cell line). The series is described as follows: cells. Particulars: Homo sapiens, U-937.
Excerpt: as §4
Series [12] deals with HL-60 (monocyte-like cell line). The series is described as follows: cells. Conditions: Homo sapiens.
Excerpt: as §4
In series [13] the test system is CEM, wild type. The series is described as follows: cells. Particulars: Homo sapiens, 120 h, read-out: ID50.
Excerpt: as §3
Series [14] concerns CEM, deoxyeytidine kinase deficient. The series is described as follows: cells. Conditions: Homo sapiens, 120 h, read-out: ID50.
Excerpt: as §3
In series [15] the test system is CEM, Increased 5'-nucleoside. The experiment in a line: cells. Conditions: Homo sapiens, 120 h, read-out: ID50.
Excerpt: as §3
Series [16] deals with DHL9, Increased ribonucleotide reduction. The series is described as follows: cells. Particulars: Homo sapiens, 120 h, read-out: ID50.
Excerpt: as §3
For series [17], the system named is Peripheral blood lymphocytes. The experiment in a line: cells. Conditions: Homo sapiens, Lymphocyte, 120 h, read-out: ID50.
Excerpt: as §3
Series [18] relates to Monocytes. The series is described as follows: cells. Conditions: Homo sapiens, Monocyte, 120 h, read-out: ID50.
Excerpt: as §3

Excerpt for CEM (T cell line): as §4
Description for K562 (myeloid cell line): (§5) Seven different cell lines were treated with varying concentrations of 2-chloro-9,1'-beta-2'-deoxy-2'-fluoro-D-arabinofuranosyladenine (CAFdA) to determine percent viability. CAFdA concentrations ranging from 0 to about 260 nM were used to treat each cell line in vitro.
Excerpt for Molt-4 (T cell line): as §4
Description for SB (B cell line): as §5

For `C[C@@H]1C[C@H]2[C@@H]3CCC4=CC(=O)C=C[C@]4(C)[C@@]3(F)[C@@H](O)C[C@]2(C)[C@@]1(O)C(=O)CO` [dexamethasone, reference compound], the “inhibition of swelling compared to saline control” value in series [1] (5 mg/kg, intraperitoneal) was “significant inhibition of swelling”; in series [1] (5 mg/kg, oral) it was “significant inhibition of swelling”; in series [2], “effective at inhibiting swelling”.

In the case of α-interferon, the “bone marrow cells with the translocation” value in series [3] is listed as “sometimes loses the clone with the translocation”.

Consider `Nc1ncnc2c1ncn2[C@@H]1O[C@H](CO)C[C@@H]1F` [2'-fluoro-2',3'-dideoxyarabinose], for which the stability result in series [4] is on record as “stable”.

On to `Nc1ncnc2c1ncn2[C@@H]1O[C@H](CO)C[C@H]1F` [2'-fluoro-2',3'-dideoxyribose], for which the stability result in series [4] is recorded as “stable”.

For `Nc1nc(Cl)nc2c1ncn2[C@@H]1O[C@H](CO)[C@@H](O)[C@@H]1F` [CAFdA, 2-chloro-9,1'-beta-2'-deoxy-2'-fluoro-D-arabinofuranosyladenine], the “inhibition of swelling compared to saline control” value in series [1] (1 mg/kg, intraperitoneal) was “significant inhibition of swelling”; in series [1] (1 mg/kg, oral), “significant inhibition of swelling”. Also, the “effectiveness when given orally” value in series [1] (oral, without the protection of an enteric coating (2-CdA), preliminary in vivo studies) was “effective”. The “CAFdA/2-CdA (ID50 ratio)” value in the series with CEM, wild type [5] is recorded as 3.1; in series [6] it was 2.1; in [7] it was 15; in series [8], 1.9; in the series on Monocytes [9] it was 2.1. The figures for the viability at 0.26 µM with SB (B cell line) and in the series with K562 (myeloid cell line) were 90% and 40%, respectively. Moreover, the viability at 0.05 µM (with CEM (T cell line); in [10]; in series [12]) was not above 60% throughout. Moreover, the viability at 0.06 µM (in the series with CEM (T cell line); in the series with Molt-4 (T cell line); in series [10]; in [11]; in series [12]) was less than 20% each time. Moreover, the viability at 0.13 µM (in the series with CEM (T cell line); in the series on Molt-4 (T cell line); in series [10]; in series [11]; in [12]) was less than 10% each time. For the same compound, the IC50 in the series on CEM, wild type [13] is 67 nM; in [14], 716000 nM; in series [15], 126 nM; in series [16], 6000 nM; in series [17], 18 nM; with Monocytes [18], 47 nM.

As for `NC(=O)NO` [hydroxyurea], the “bone marrow cells with the translocation” value in series [3] is recorded as “still contains a predominance of cells with the translocation”.

Regarding `CS(=O)(=O)OCCCCOS(C)(=O)=O` [busulfan], the “serious complication ("busulfan lung")” value in [3] (CML treatment) was “bronchopulmonary dysplasia with pulmonary fibrosis”. In series [3], the “bone marrow cells with the translocation” value is listed as “still contains a predominance of cells with the translocation”.
